According to ChEMBL document CHEMBL3272224, “Synthesis and hypotensive activity of N-alkyl-N"-cyano-N'-pyridylguanidines” (J Med Chem, 1978):

Key:
[1] = Toxicity in po dosed mouse assessed as mortality after 7 days; details: in vivo
Rattus norvegicus = assay: Hypotensive activity in po dosed spontaneously hypertensive Wistar-Okamoto rat assessed as dose required to cause 30 mmHg fall of blood pressure administered for 5 days; type: functional; details: 120 h, read-out: MED

## Cc1nn(C)c(C)c1N/C(=N/C#N)NC(C)(C)C
[1]
  LD50 at 168 h: > 1000 mg/kg
Rattus norvegicus
  minimal effective dose: 5 mg/kg

## CC(C)(C)CC(C)(C)/N=C(\NC#N)Nc1ccncc1
[1]
  LD50 at 168 h: > 1000 mg/kg
Rattus norvegicus
  minimal effective dose: 50 mg/kg

## CC(=O)Nc1ccc(N/C(=N/C#N)NC(C)(C)C)cc1
[1]
  LD50 at 168 h: > 1000 mg/kg
Rattus norvegicus
  minimal effective dose: > 50 mg/kg

## N#C/N=C(/Nc1cccnc1)NC12CC3CC(CC(C3)C1)C2
[1]
  LD50 at 168 h: > 1000 mg/kg
Rattus norvegicus
  minimal effective dose: 50 mg/kg

## CCC(C)C(C)/N=C(\NC#N)Nc1ccncc1 (stereo unspecified)
[1]
  LD50 at 168 h: 250 mg/kg
Rattus norvegicus
  minimal effective dose: 8 mg/kg

## CC(C)(N/C(=N\C#N)Nc1ccncc1)c1ccccc1
[1]
  LD50 at 168 h: > 1000 mg/kg
Rattus norvegicus
  minimal effective dose: > 50 mg/kg

## Cc1cccc(C)c1/N=C(\NC#N)Nc1cccnc1
[1]
  LD50 at 168 h: > 1000 mg/kg
Rattus norvegicus
  minimal effective dose: 50 mg/kg

## CCC(C)(C)N/C(=N\C=O)Nc1cccnc1
[1]
  LD50 at 168 h: 600 mg/kg
Rattus norvegicus
  minimal effective dose: > 20 mg/kg

## N#CN/C(=N\C1CCCCC1)Nc1cccnc1
[1]
  LD50 at 168 h: > 1000 mg/kg
Rattus norvegicus
  minimal effective dose: 20 mg/kg

## CCC(C)(C)/N=C(\NC#N)Nc1ccncc1
[1]
  LD50 at 168 h: 600 mg/kg
Rattus norvegicus
  minimal effective dose: 2.5 mg/kg

## CC(/N=C(\NC#N)Nc1ccncc1)c1ccccc1 (stereo unspecified)
[1]
  LD50 at 168 h: 600 mg/kg
Rattus norvegicus
  minimal effective dose: 10 mg/kg

## N#CN/C(=N\CC1CCCO1)Nc1cccnc1 (stereo unspecified)
[1]
  LD50 at 168 h: > 1000 mg/kg
Rattus norvegicus
  minimal effective dose: 50 mg/kg

## Cc1cccc(C)c1N/C(=N/C#N)NC(C)(C)C
[1]
  LD50 at 168 h: > 1000 mg/kg
Rattus norvegicus
  minimal effective dose: > 50 mg/kg

## CC(C)(C)N/C(=N\C#N)NCCc1ccccn1
[1]
  LD50 at 168 h: 800 mg/kg
Rattus norvegicus
  minimal effective dose: 25 mg/kg

## CCC(C)(C)N/C(N)=N/C#N [GUANCYDINE]
[1]
  LD50 at 168 h: 800 mg/kg
Rattus norvegicus
  minimal effective dose: 15 mg/kg

## Cc1noc(C)c1N/C(=N/C#N)NC(C)C(C)(C)C (stereo unspecified)
[1]
  LD50 at 168 h: > 1000 mg/kg
Rattus norvegicus
  minimal effective dose: 20 mg/kg

## CC1(/N=C(\NC#N)Nc2cccnc2)CCC1
[1]
  LD50 at 168 h: > 1000 mg/kg
Rattus norvegicus
  minimal effective dose: 50 mg/kg

## CC(C)(C)N/C(=N\C#N)NCc1cccnc1
[1]
  LD50 at 168 h: > 1000 mg/kg
Rattus norvegicus
  minimal effective dose: 2.5 mg/kg

## N#CN/C(=N\C1CCCCC1)Nc1ccccn1
[1]
  LD50 at 168 h: 1000 mg/kg
Rattus norvegicus
  minimal effective dose: > 35 mg/kg

## CC(C)CC/N=C(\NC#N)Nc1cccnc1
[1]
  LD50 at 168 h: > 1000 mg/kg
Rattus norvegicus
  minimal effective dose: 20 mg/kg

## CCCCCCC/N=C(\NC#N)Nc1cccnc1
[1]
  LD50 at 168 h: > 1000 mg/kg
Rattus norvegicus
  minimal effective dose: > 50 mg/kg

## CC(C)(C)/N=C(\NC#N)Nc1ccccn1
[1]
  LD50 at 168 h: 600 mg/kg
Rattus norvegicus
  minimal effective dose: > 20 mg/kg

## Cc1noc(C)c1N/C(=N/C#N)NC(C)(C)C
[1]
  LD50 at 168 h: > 1000 mg/kg
Rattus norvegicus
  minimal effective dose: 10 mg/kg
